Data reported in US20230391739A1, “ARYL DERIVATIVES FOR TREATING TRPM3 MEDIATED DISORDERS” (Katholieke Universiteit Leuven, priority 2020, published 2023).

Target: T1, mouse TRPM3α2 (mTRPM3) ion channel (Mus musculus, UniProt J9SQF3)
T1 construct: expressed in transfected cells; host or cells: flip-in HEK293
Assay: TRPM3 ion channel driven Ca2+ uptake, Fluo-4 AM assay, PS-stimulated (mTRPM3)
Type: cell-based
Conditions: TRPM3 overexpressing flip-in HEK293 cells stimulated with Pregnenolone sulfate (PS) 50 μM, activity ranges A, B, C
Outline: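 Ca²⁺ influx through mouse TRPM3α2, opened by 50 μM pregnenolone sulfate, was tracked with Fluo-4 AM in stably transfected HEK293 cells read directly after seeding onto pre-dispensed compound.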

T1 sequence (J9SQF3 1-1709 isoform J9SQF3-12): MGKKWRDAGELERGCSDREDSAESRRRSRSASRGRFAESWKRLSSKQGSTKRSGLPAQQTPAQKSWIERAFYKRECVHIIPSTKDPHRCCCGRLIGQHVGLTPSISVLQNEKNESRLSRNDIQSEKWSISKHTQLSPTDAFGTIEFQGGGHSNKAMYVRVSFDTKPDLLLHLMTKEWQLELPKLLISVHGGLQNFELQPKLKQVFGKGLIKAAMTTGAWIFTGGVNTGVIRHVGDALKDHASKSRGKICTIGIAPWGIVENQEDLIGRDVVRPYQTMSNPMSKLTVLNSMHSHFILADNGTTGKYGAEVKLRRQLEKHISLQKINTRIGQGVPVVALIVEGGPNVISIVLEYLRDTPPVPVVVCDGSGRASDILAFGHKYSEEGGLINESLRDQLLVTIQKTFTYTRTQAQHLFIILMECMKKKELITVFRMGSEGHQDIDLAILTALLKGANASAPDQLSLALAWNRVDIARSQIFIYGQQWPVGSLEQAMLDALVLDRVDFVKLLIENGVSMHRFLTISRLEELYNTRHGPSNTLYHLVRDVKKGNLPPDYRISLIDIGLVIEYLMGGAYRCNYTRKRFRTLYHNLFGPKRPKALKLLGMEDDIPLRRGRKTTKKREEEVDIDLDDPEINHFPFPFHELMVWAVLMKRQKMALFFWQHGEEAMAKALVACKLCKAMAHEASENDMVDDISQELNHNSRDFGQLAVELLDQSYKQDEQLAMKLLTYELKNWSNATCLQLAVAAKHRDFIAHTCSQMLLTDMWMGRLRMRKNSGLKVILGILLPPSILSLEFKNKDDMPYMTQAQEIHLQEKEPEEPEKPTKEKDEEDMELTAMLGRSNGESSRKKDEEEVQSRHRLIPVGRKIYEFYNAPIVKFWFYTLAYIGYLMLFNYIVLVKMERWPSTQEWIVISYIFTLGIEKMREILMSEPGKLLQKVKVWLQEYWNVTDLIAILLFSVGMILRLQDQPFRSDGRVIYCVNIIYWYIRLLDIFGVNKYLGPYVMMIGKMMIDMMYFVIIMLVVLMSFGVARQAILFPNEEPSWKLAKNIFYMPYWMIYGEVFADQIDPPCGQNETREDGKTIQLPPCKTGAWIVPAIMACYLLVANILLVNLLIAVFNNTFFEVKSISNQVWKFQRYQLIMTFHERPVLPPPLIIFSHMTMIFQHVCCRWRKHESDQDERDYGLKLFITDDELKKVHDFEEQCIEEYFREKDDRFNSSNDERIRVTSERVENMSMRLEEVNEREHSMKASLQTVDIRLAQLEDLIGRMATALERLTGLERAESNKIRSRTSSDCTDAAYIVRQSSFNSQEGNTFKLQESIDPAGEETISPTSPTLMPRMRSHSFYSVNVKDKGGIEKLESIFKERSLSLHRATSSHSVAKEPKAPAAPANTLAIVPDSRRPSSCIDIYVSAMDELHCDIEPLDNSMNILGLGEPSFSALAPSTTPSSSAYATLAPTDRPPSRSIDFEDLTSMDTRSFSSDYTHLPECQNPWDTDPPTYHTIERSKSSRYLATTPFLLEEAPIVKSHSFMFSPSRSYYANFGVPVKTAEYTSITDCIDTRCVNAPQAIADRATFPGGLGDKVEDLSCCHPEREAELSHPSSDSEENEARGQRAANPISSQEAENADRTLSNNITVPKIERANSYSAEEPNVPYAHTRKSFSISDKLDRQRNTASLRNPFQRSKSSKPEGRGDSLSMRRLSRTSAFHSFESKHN

Row | SMILES | IC50
1 | Cc1oc2ccc(OCc3ccccc3)cc2c1C(=O)NC1CCC(=O)NC1 (centres unmarked) [Cpd 111, 5-(benzyloxy)-2-methyl-N-(6-oxopiperidin-3-yl)benzofuran-3-carboxamide] | 1000 to 20000 nM
2 | Cc1oc2ccc(OCc3ccccc3)cc2c1C(=O)NCC1CCC(=O)N1 (centres unmarked) [Cpd 112, 5-(benzyloxy)-2-methyl-N-((5-oxopyrrolidin-2-yl)methyl)benzofuran-3-carboxamide] | < 1000 nM
3 | Cc1oc2ccc(OCc3ccccc3)cc2c1C(=O)NC1CCCNCC1 (centres unmarked) [Cpd 119, N-(azepan-4-yl)-5-(benzyloxy)-2-methylbenzofuran-3-carboxamide] | < 1000 nM
4 | Cc1oc2ccc(OCc3ccccc3)cc2c1C(=O)NCC1CCNCC1 [Cpd 121, 5-(benzyloxy)-2-methyl-N-(piperidin-4-ylmethyl)benzofuran-3-carboxamide] | 1000 to 20000 nM
5 | Cc1oc2ccc(OCc3ccccc3)cc2c1C(=O)NCC1CCOCC1 [Cpd 122, 5-(benzyloxy)-2-methyl-N-((tetrahydro-2H-pyran-4-yl)methyl)benzofuran-3-carboxamide] | 1000 to 20000 nM
6 | Cc1oc2ccc(OCc3ccccc3)cc2c1C(=O)N[C@@H]1CN[C@H](CO)C1 [Cpd 126, 5-(benzyloxy)-N-((3S,5S)-5-(hydroxymethyl)pyrrolidin-3-yl)-2-methylbenzofuran-3-carboxamide] | < 1000 nM
7 | COc1cccc(COc2ccc3oc(C)c(C(=O)N[C@H]4CCNC4)c3c2)c1 [Cpd 127, (S)-5-((3-methoxybenzyl)oxy)-2-methyl-N-(pyrrolidin-3-yl)benzofuran-3-carboxamide] | < 1000 nM
8 | Cc1oc2ccc(OCc3ccccc3)cc2c1C(=O)NCC1(CO)COC1 [Cpd 128, 5-(benzyloxy)-N-((3-(hydroxymethyl)oxetan-3-yl)methyl)-2-methylbenzofuran-3-carboxamide] | < 1000 nM
9 | Cc1oc2ccc(OCc3ccccc3F)cc2c1C(=O)NC1CCNC1=O (centres unmarked) [Cpd 129, 5-((2-fluorobenzyl)oxy)-2-methyl-N-(2-oxopyrrolidin-3-yl)benzofuran-3-carboxamide] | < 1000 nM
10 | Cc1oc2ccc(OCc3cccc(F)c3)cc2c1C(=O)NCC1CCCO1 (centres unmarked) [Cpd 132, 5-((3-fluorobenzyl)oxy)-2-methyl-N-((tetrahydrofuran-2-yl)methyl)benzofuran-3-carboxamide] | < 1000 nM
11 | Cc1oc2ccc(OCc3ccccc3)cc2c1C(=O)NCCc1ccccc1 [Cpd 134, 5-(benzyloxy)-2-methyl-N-phenethylbenzofuran-3-carboxamide] | > 20000 nM
12 | Cc1oc2ccc(OCc3cccc(F)c3F)cc2c1C(=O)N[C@H]1CCNC1 [Cpd 135, (S)-5-((2,3-difluorobenzyl)oxy)-2-methyl-N-(pyrrolidin-3-yl)benzofuran-3-carboxamide] | < 1000 nM
13 | Cc1oc2ccc(OCc3c(F)cccc3F)cc2c1C(=O)N[C@H]1CCNC1 [Cpd 136, (S)-5-((2,6-difluorobenzyl)oxy)-2-methyl-N-(pyrrolidin-3-yl)benzofuran-3-carboxamide] | < 1000 nM
14 | Cc1oc2ccc(OCc3ccccc3)cc2c1C(=O)NC1CNCC1(F)F (centres unmarked) [Cpd 137, 5-(benzyloxy)-N-(4,4-difluoropyrrolidin-3-yl)-2-methylbenzofuran-3-carboxamide] | < 1000 nM
15 | Cc1oc2ccc(OCc3ccccc3)cc2c1C(=O)NCCc1ccccn1 [Cpd 138, 5-(benzyloxy)-2-methyl-N-(2-(pyridin-2-yl)ethyl)benzofuran-3-carboxamide] | 1000 to 20000 nM
16 | Cc1oc2ccc(OCc3ccccc3)cc2c1C(=O)NCCc1ccncc1 [Cpd 139, 5-(benzyloxy)-2-methyl-N-(2-(pyridin-4-yl)ethyl)benzofuran-3-carboxamide] | 1000 to 20000 nM
17 | Cc1oc2ccc(OCc3ccccc3)cc2c1C(=O)N[C@@H]1C[C@H]2CNC[C@H]2C1 [Cpd 140, 5-(benzyloxy)-2-methyl-N-(trans-octahydrocyclopenta[c]pyrrol-5-yl)benzofuran-3-carboxamide] | < 1000 nM
18 | Cc1oc2ccc(OCc3ccccc3)cc2c1C(=O)NC1CN2CCC1CC2 (centres unmarked) [Cpd 142, 5-(benzyloxy)-2-methyl-N-(quinuclidin-3-yl)benzofuran-3-carboxamide] | < 1000 nM
19 | Cc1oc2ccc(OCc3ccccc3)cc2c1C(=O)N[C@H]1C[C@H]2CC[C@@H](C1)N2 [Cpd 143, 5-(benzyloxy)-N-((1R,3r,5S)-8-azabicyclo[3.2.1]octan-3-yl)-2-methylbenzofuran-3-carboxamide] | < 1000 nM

Other lines, results leading:

Row | IC50 | SMILES
20 | 1000 to 20000 nM | Cc1oc2ccc(OCc3ccccc3)cc2c1C(=O)NC1CC(=O)N(C)C1 (centres unmarked) [Cpd 110, 5-(benzyloxy)-2-methyl-N-(1-methyl-5-oxopyrrolidin-3-yl)benzofuran-3-carboxamide]
21 | < 1000 nM | Cc1oc2ccc(OCc3ccccc3)cc2c1C(=O)NC1CCCNC1=O (centres unmarked) [Cpd 113, 5-(benzyloxy)-2-methyl-N-(2-oxopiperidin-3-yl)benzofuran-3-carboxamide]
22 | < 1000 nM | Cc1oc2ccc(OCc3ccccc3)cc2c1C(=O)N[C@H]1CC[C@@H](N)CC1 [Cpd 116, N-(cis-4-aminocyclohexyl)-5-(benzyloxy)-2-methylbenzofuran-3-carboxamide]
23 | < 1000 nM | Cc1oc2ccc(OCc3ccccc3)cc2c1C(=O)NC1CCN(C)CC1 [Cpd 117, 5-(benzyloxy)-2-methyl-N-(1-methylpiperidin-4-yl)benzofuran-3-carboxamide]
24 | > 20000 nM | Cc1oc2ccc(OCc3ccccc3)cc2c1C(=O)N1CC[C@@H](N(C)C)C1 [Cpd 118, (R)-(5-(benzyloxy)-2-methylbenzofuran-3-yl)(3-(dimethylamino)pyrrolidin-1-yl)methanone]
25 | 1000 to 20000 nM | Cc1oc2ccc(OCc3ccccc3)cc2c1C(=O)N[C@H]1CC[C@H](N)CC1 [Cpd 120, N-(trans-4-aminocyclohexyl)-5-(benzyloxy)-2-methylbenzofuran-3-carboxamide]
26 | < 1000 nM | Cc1oc2ccc(OCc3ccccc3)cc2c1C(=O)NC1CCC(O)CC1 (centres unmarked) [Cpd 123, 5-(benzyloxy)-N-(4-hydroxycyclohexyl)-2-methylbenzofuran-3-carboxamide]
27 | < 1000 nM | Cc1oc2ccc(OCc3ccccc3)cc2c1C(=O)N[C@H]1CC[C@H](O)CC1 [Cpd 124, 5-(benzyloxy)-N-(trans-4-hydroxycyclohexyl)-2-methylbenzofuran-3-carboxamide]
28 | < 1000 nM | Cc1oc2ccc(OCc3ccccc3)cc2c1C(=O)N[C@H]1CC[C@@H](O)CC1 [Cpd 125, 5-(benzyloxy)-N-(cis-4-hydroxycyclohexyl)-2-methylbenzofuran-3-carboxamide]
29 | < 1000 nM | Cc1oc2ccc(OCc3ccccc3)cc2c1C(=O)NC1CCNCC1F (centres unmarked) [Cpd 131, 5-(benzyloxy)-N-(3-fluoropiperidin-4-yl)-2-methylbenzofuran-3-carboxamide]
30 | < 1000 nM | Cc1oc2ccc(OCc3ccccc3)cc2c1C(=O)NS(=O)(=O)C1CC1 [Cpd 133, 5-(benzyloxy)-N-(cyclopropylsulfonyl)-2-methylbenzofuran-3-carboxamide]
31 | < 1000 nM | Cc1oc2ccc(OCc3ccccc3)cc2c1C(=O)NC1CCN2CCCC12 (centres unmarked) [Cpd 144, 5-(benzyloxy)-N-(hexahydro-1H-pyrrolizin-1-yl)-2-methylbenzofuran-3-carboxamide]
32 | 1000 to 20000 nM | CC(=O)N1CC[C@H](NC(=O)c2c(C)oc3ccc(OCc4ccccc4)cc23)C1 [Cpd 145, (S)—N-(1-acetylpyrrolidin-3-yl)-5-(benzyloxy)-2-methylbenzofuran-3-carboxamide]
